Experimental data: ChEMBL document CHEMBL1142824, “Discovery of a novel, potent and selective human beta3-adrenergic receptor agonist” (Bioorg Med Chem Lett, 2005)

Columns and labels:
[1] = target: Beta-3 adrenergic receptor (Homo sapiens, UniProt P13945); test: Agonistic activity was assessed by measuring cAMP accumulation in CHO cell lines expressing cloned human Beta-3 adrenergic receptor; assay type: functional, cell-based
[2] = target: Beta-1 adrenergic receptor (Homo sapiens, UniProt P08588)
Chain of Beta-1 adrenergic receptor (P08588 whole entry): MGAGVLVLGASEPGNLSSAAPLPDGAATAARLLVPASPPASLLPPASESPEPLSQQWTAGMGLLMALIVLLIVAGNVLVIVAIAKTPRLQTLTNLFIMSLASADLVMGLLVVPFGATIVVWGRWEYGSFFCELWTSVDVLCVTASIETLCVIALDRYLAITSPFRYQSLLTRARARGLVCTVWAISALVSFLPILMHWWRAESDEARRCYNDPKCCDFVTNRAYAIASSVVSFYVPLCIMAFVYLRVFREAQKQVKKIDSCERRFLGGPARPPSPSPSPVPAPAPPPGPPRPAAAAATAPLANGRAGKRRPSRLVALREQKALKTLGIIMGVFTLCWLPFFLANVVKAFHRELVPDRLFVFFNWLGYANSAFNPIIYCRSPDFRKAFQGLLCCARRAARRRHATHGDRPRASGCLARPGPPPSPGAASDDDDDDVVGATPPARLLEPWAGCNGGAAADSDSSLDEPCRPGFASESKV
Description: Agonistic activity was assessed by measuring cAMP accumulation in CHO cell lines expressing cloned human Beta-1 adrenergic receptor

[3] = target: Beta-2 adrenergic receptor and beta-3 adrenergic receptor (Homo sapiens) (UniProt P07550+P13945); test: Ratio of agonistic activity to produce cAMP by stimulating beta-2 and beta-3 adrenergic receptor in chinese hamster ovary cells; assay type: functional, cell-based
[4] = Half life of compound after intravenous dose of 0.32 mg/kg; assay type: ADME, organism-based, Canis lupus familiaris; parameters: dose 0.32 mg/kg, route intravenous; conditions: dog, in vivo
[5] = target: Beta-2 adrenergic receptor (Homo sapiens, UniProt P07550); test: Agonistic activity was assessed by measuring cAMP accumulation in CHO cell lines expressing cloned human Beta-2 adrenergic receptor; assay type: functional, cell-based
Chain of Beta-2 adrenergic receptor (P07550 whole entry): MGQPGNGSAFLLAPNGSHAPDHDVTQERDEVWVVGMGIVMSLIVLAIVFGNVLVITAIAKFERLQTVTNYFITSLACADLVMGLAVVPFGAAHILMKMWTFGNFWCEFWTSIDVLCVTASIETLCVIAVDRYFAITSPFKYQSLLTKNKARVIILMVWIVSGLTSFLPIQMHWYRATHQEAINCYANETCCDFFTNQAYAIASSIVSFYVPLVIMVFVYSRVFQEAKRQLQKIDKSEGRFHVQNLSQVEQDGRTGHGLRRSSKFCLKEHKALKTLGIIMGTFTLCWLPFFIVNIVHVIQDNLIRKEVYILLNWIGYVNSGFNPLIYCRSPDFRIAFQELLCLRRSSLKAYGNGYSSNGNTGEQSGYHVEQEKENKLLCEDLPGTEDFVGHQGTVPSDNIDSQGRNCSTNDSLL

[6] = Maximum plasma concentration after orally administered dose of 3.2 mg/kg; assay type: ADME, organism-based; parameters: dose 3.2 mg/kg, route oral; conditions: rat, po
[7] = Maximum plasma concentration after orally administered dose of 0.32 mg/kg; assay type: ADME, organism-based, Canis lupus familiaris; parameters: dose 0.32 mg/kg, route oral; conditions: dog, po
[8] = Area under concentration-time curve after orally administered dose of 3.2 mg/kg; assay type: ADME, organism-based; parameters: dose 3.2 mg/kg, route oral; conditions: rat, in vivo, po
[9] = Area under concentration-time curve after orally administered dose of 0.32 mg/kg; assay type: ADME, organism-based, Canis lupus familiaris; parameters: dose 0.32 mg/kg, route oral; conditions: dog, in vivo, po
[10] = Half life of compound after intravenous dose of 1 mg/kg; assay type: ADME, organism-based; parameters: dose 1 mg/kg, route intravenous; conditions: rat, in vivo
[11] = Total clearance rate after intravenous dose of 0.32 mg/kg; assay type: ADME, organism-based, Canis lupus familiaris; parameters: dose 0.32 mg/kg, route intravenous; conditions: dog, in vivo, read-out: CLtot
[12] = Percent bioavailability after intravenous dose of 1 mg/kg; assay type: ADME, organism-based; conditions: rat, in vivo
[13] = Percent bioavailability after intravenous dose of 0.32 mg/kg; assay type: ADME, organism-based, Canis lupus familiaris; conditions: dog, in vivo
[14] = Total clearance rate after intravenous dose of 1 mg/kg; assay type: ADME, organism-based; parameters: dose 1 mg/kg, route intravenous; conditions: rat, in vivo, read-out: CLtot

Chain of Beta-3 adrenergic receptor (P13945 whole entry): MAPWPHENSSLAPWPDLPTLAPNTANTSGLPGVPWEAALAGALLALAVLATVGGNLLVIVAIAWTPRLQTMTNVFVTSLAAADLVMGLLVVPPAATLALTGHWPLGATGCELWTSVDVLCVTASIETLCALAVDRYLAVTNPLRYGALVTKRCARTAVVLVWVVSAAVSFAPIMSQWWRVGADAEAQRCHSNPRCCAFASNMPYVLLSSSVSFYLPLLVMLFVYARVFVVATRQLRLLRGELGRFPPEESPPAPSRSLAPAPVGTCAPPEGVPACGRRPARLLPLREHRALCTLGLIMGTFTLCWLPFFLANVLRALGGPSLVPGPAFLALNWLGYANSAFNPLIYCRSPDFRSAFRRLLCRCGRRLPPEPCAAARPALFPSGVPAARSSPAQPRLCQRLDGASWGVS

SMILES | EC50 [1] | EC50 [2] | further results
O=C(Nc1ccccc1)Nc1ccc(C[C@@H](CO)NC[C@H](O)c2cccc(Cl)c2)cc1 | 74 nM | – | –
O=C(Nc1ccc(C[C@@H](CO)NC[C@H](O)COc2ccccc2)cc1)Nc1cccc(C(=O)O)c1 | 1.5 nM | 1.3 nM | –
O=C(Nc1ccc(C[C@@H](CO)NC[C@H](O)COc2ccccc2)cc1)NC1CCCCC1 | 2.1 nM | 15 nM | –
O=C(Nc1ccccc1)Nc1ccc(C[C@@H](CO)NC[C@H](O)COc2cccc3[nH]c4ccccc4c23)cc1 | 22 nM | – | –
O=C(Nc1ccccc1)Nc1ccc(C[C@@H](CO)NC[C@H](O)COc2ccccc2)cc1 | 0.5 nM | 20 nM | Selectivity [3]: > 200; half-life [4]: 8.1 h; EC50 [5]: > 100 nM; Cmax [6]: 4.2 ng/mL; Cmax [7]: 52.6 ng/mL; AUC [8]: 4.2 ng·h/mL; AUC [9]: 140 ng·h/mL; T1/2 [10]: 1.3 h; clearance [11]: 24.2 mL/min/kg; bioavailability [12]: 1.1%; bioavailability [13]: 20.3%; clearance [14]: 142 mL/min/kg
O=C(Nc1ccc(C[C@@H](CO)NC[C@H](O)COc2ccccc2)cc1)Nc1cccc([N+](=O)[O-])c1 | 1 nM | 0.9 nM | –
O=C(Nc1ccccc1)Nc1ccc(CCNC[C@H](O)COc2ccccc2)cc1 | 1.6 nM | 3.6 nM | –

More lines, in order of falling EC50 [1], values ahead:

EC50 [1] | EC50 [2] | SMILES | further results
8.3 nM | 51 nM | CCCNC(=O)Nc1ccc(C[C@@H](CO)NC[C@H](O)COc2ccccc2)cc1 | –
4.9 nM | 27 nM | CC(C)NC(=O)Nc1ccc(C[C@@H](CO)NC[C@H](O)COc2ccccc2)cc1 | –
2.5 nM | 2.2 nM | COc1ccc(NC(=O)Nc2ccc(C[C@@H](CO)NC[C@H](O)COc3ccccc3)cc2)cc1 | –
1.1 nM | 12 nM | COc1ccccc1NC(=O)Nc1ccc(C[C@@H](CO)NC[C@H](O)COc2ccccc2)cc1 | –
0.8 nM | 4 nM | COc1cccc(NC(=O)Nc2ccc(C[C@@H](CO)NC[C@H](O)COc3ccccc3)cc2)c1 | –
